Reference: paper PMC9019904, “AD Informer Set: Chemical tools to facilitate Alzheimer's disease drug discovery” (Alzheimer's & Dementia : Translational Research & Clinical …, 2022)
≈ marks a conversion by molar mass, not a printed value. Where a SMILES comes first, the peptide text is derived from it. [ ]: non-standard residue; d: D form. dHyp = O=C(O)[C@H]1C[C@H](O)CN1

Key:
[1] = Kinetic solubility in aqueous buffer pH 7.4 by total chemiluminescent nitrogen determination (Analiza); details: for solubility kinetic: aqueous buffer, pH 7.4, aqueous buffer, kinetic from dmso stock
[2] = system: HMC3 (human microglia) cell line; experiment: pHrodo-myelin phagocytosis/cell viability high content imaging assay: viability (cell count, nuclear area, nuclear intensity); details: HMC3 cells, 10 μM, cell count <70% control
Outline: (§1)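 BV2 mouse and HMC3 human microglia were treated with compounds at 10 μM for 48 h, with pHrodo-myelin present for the last 20 h. Viability was imaged as total cell count per well and mean nuclear intensity per cell. Values are means of duplicates, normalized to untreated wells as % control.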

[3] = system: BV2 (mouse microglia) cell line; experiment: as above
Outline: as §1

cellular system = details: published cellular activity at 10 μM; cited from earlier work
[4] = system: HMC3 (human microglia) cell line; experiment: pHrodo-myelin phagocytosis/cell viability high content imaging assay: phagocytosis signal; type: cell-based; details: HMC3 cells, 10 μM
Outline: (§2)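 Cells receive pHrodo-myelin, then are imaged at high content approximately 22 hours later. Phagocytosis signal and viability are captured in the same run. Three measurements are extracted per well.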

[5] = system: BV2 (mouse microglia) cell line; experiment: as above; type: cell-based
Outline: as §2

[6] = BV2 cells, 10 μM, cell count <70% control
[7] = pH 7.4, aqueous buffer, kinetic from dmso stock

solubility kinetic [1] [µM] | solubility kinetic (physchem; [7]) [µM] | SMILES | Mouse microglial cytotoxicity at 10 μM (<70% control) [3, 6] | Reported as cell active (<10 μM) (cellular system) | Inhibition of human microglial phagocytosis at 10 μM (<70% control) [4] | further results
0.8 (≈ 0.313 µg/mL) | – | CC(C)CCN1c2nc(Nc3cc(F)c(O)c(F)c3)ncc2N(C)C(=O)C1C (centres unmarked) [BI-D1870] | Y (The compound was found to be cytotoxic (cell count threshold: <70% control) when murine immortalized microglial cells were dosed at 10 μM (Y: yes)) | Y (Published data supports that the compound is active in a cellular system when dosed at 10 μM (Y/N)) | – | Human microglial cytotoxicity at 10 μM (<70% control) [2]: Y (The compound was found to be cytotoxic (cell count threshold: <70% control) when human immortalized microglial cells were dosed at 10 μM (Y: yes)); Stimulation of human microglial phagocytosis at 10 μM (>150% control) [4]: Y (The compound was found to stimulate phagocytosis (response threshold: >150% control) when human immortalized microglial cells were dosed at 10 μM (Y: yes))
< 1.1 | – | CCOC(=O)CS(=O)(=O)c1ccc([C@@H](CO)NC(=O)c2cc3c(Cl)c(Cl)c(C)cc3n2C)cc1 [BI-4916] | Y (The compound was found to be cytotoxic (cell count threshold: <70% control) when murine immortalized microglial cells were dosed at 10 μM (Y: yes)) | Y (Published data supports that the compound is active in a cellular system when dosed at 10 μM (Y/N)) | Y (The compound was found to inhibit phagocytosis (response threshold: <70% control) when human immortalized microglial cells were dosed at 10 μM (Y: yes)) | Stimulation of mouse microglial phagocytosis at 10 μM (>150% control) ([5]; BV2 cells, 10 μM): Y (The compound was found to stimulate phagocytosis (response threshold: >150% control) when murine immortalized microglial cells were dosed at 10 μM (Y: yes))
– | – | CC(=O)N[C@H](Cc1ccc(O)cc1)C(=O)N1CCC[C@@H]1C(=O)N1C[C@@H](O)C[C@@H]1C(=O)NCC(=O)N[C@H](C)C(=O)NCC(N)=O [Rotigaptide] (Ac-[dY][dP][dHyp]G[dA]G-NH2) | – | – | – | solubility kinetic (physchem; pH 7.4): 177 µM (≈ 110 µg/mL)
< 2.1 | – | COC(=O)C1=C(C)NC2=C(C(=O)c3ccccc32)C1c1ccccc1OCc1ccccc1F (centres unmarked) [5408-1697] | – | Y (Published data supports that the compound is active in a cellular system when dosed at 10 μM (Y/N)) | Y (The compound was found to inhibit phagocytosis (response threshold: <70% control) when human immortalized microglial cells were dosed at 10 μM (Y: yes)) | Stimulation of mouse microglial phagocytosis at 10 μM (>150% control) ([5]; BV2 cells, 10 μM): Y (The compound was found to stimulate phagocytosis (response threshold: >150% control) when murine immortalized microglial cells were dosed at 10 μM (Y: yes))
– | < 0.5 | CCCN(CC1CC1)c1nc(C)nc(Nc2c(Cl)cc(Cl)cc2Cl)c1Cl.Cl [NBI 27914 (Compound 7a)] | – | – | – | Mouse microglial cytotoxicity at 10 μM (<70% control) ([3]; BV2, 10 μM): Y (The compound was found to be cytotoxic (cell count threshold: <70% control) when murine immortalized microglial cells were dosed at 10 μM (Y: yes)); Stimulation of mouse microglial phagocytosis at 10 μM (>150% control) ([5]; BV2, 10 μM): Y (The compound was found to stimulate phagocytosis (response threshold: >150% control) when murine immortalized microglial cells were dosed at 10 μM (Y: yes))
2.8 (≈ 0.942 µg/mL) | – | CCOC(=O)c1sc(NC(=O)c2ccco2)c(SC#N)c1C [CBR-5884] | Y (The compound was found to be cytotoxic (cell count threshold: <70% control) when murine immortalized microglial cells were dosed at 10 μM (Y: yes)) | N (tested/active at 15 μM) | Y (The compound was found to inhibit phagocytosis (response threshold: <70% control) when human immortalized microglial cells were dosed at 10 μM (Y: yes)) | Stimulation of mouse microglial phagocytosis at 10 μM (>150% control) ([5]; BV2 cells, 10 μM): Y (The compound was found to stimulate phagocytosis (response threshold: >150% control) when murine immortalized microglial cells were dosed at 10 μM (Y: yes))
4.9 (≈ 2.33 µg/mL) | – | COc1cc(/C=C/c2ccc(NC(=O)/C=C/c3cc(OC)c(OC)c(OC)c3)cc2)cc(OC)c1 [STAT3-IN-3] | Y (The compound was found to be cytotoxic (cell count threshold: <70% control) when murine immortalized microglial cells were dosed at 10 μM (Y: yes)) | Y (Published data supports that the compound is active in a cellular system when dosed at 10 μM (Y/N)) | Y (The compound was found to inhibit phagocytosis (response threshold: <70% control) when human immortalized microglial cells were dosed at 10 μM (Y: yes)) | Inhibition of mouse microglial phagocytosis at 10 μM (<70% control) ([5]; BV2 cells, 10 μM): Y (The compound was found to inhibit phagocytosis (response threshold: <70% control) when murine immortalized microglial cells were dosed at 10 μM (Y: yes))
– | 0.9 (≈ 0.505 µg/mL) | CC(C)(C)c1cc(NC(=O)Nc2ccc(-c3cn4c(n3)sc3cc(OCCN5CCOCC5)ccc34)cc2)no1 [Quizartinib] | – | – | – | –
13.9 (≈ 6.11 µg/mL) | – | CCCCCCOc1cc2c(cc1N(C)c1ncc(C(=O)O)cn1)C(C)(C)CCC2(C)C [PA 452] | – | Y (Published data supports that the compound is active in a cellular system when dosed at 10 μM (Y/N)) | Y (The compound was found to inhibit phagocytosis (response threshold: <70% control) when human immortalized microglial cells were dosed at 10 μM (Y: yes)) | Stimulation of mouse microglial phagocytosis at 10 μM (>150% control) ([5]; BV2 cells, 10 μM): Y (The compound was found to stimulate phagocytosis (response threshold: >150% control) when murine immortalized microglial cells were dosed at 10 μM (Y: yes))
144 (≈ 55.1 µg/mL) | – | O=C(Nc1c[nH]nc1-c1nc2ccc(CN3CCOCC3)cc2[nH]1)NC1CC1 [AT9283] | Y (The compound was found to be cytotoxic (cell count threshold: <70% control) when murine immortalized microglial cells were dosed at 10 μM (Y: yes)) | Y (Published data supports that the compound is active in a cellular system when dosed at 10 μM (Y/N)) | Y (The compound was found to inhibit phagocytosis (response threshold: <70% control) when human immortalized microglial cells were dosed at 10 μM (Y: yes)) | Inhibition of mouse microglial phagocytosis at 10 μM (<70% control) ([5]; BV2 cells, 10 μM): Y (The compound was found to inhibit phagocytosis (response threshold: <70% control) when murine immortalized microglial cells were dosed at 10 μM (Y: yes))
– | 108 (≈ 37.9 µg/mL) | Cc1cc(NC(=O)Cc2ccc(F)c(Cl)c2)n(C2CCCCC2)n1 [VU0810464] | – | – | – | –
– | 117 (≈ 49.6 µg/mL) | CCCCc1nc(Cl)c(CO)n1Cc1ccc(-c2ccccc2-c2nn[nH]n2)cc1 [Losartan] | – | – | – | –
– | – | COS(=O)(=O)[O-].C[n+]1c2ccccc2nc2ccccc21 [Phenazine methosulfate] | Y (The compound was found to be cytotoxic (cell count threshold: <70% control) when murine immortalized microglial cells were dosed at 10 μM (Y: yes)) | Y (Published data supports that the compound is active in a cellular system when dosed at 10 μM (Y/N)) | Y (The compound was found to inhibit phagocytosis (response threshold: <70% control) when human immortalized microglial cells were dosed at 10 μM (Y: yes)) | Kinetic solubility ([1]; aqueous buffer pH 7.4): 101.8 µM; Human microglial cytotoxicity at 10 μM (<70% control) [2]: Y (The compound was found to be cytotoxic (cell count threshold: <70% control) when human immortalized microglial cells were dosed at 10 μM (Y: yes)); Inhibition of mouse microglial phagocytosis at 10 μM (<70% control) ([5]; BV2 cells, 10 μM): Y (The compound was found to inhibit phagocytosis (response threshold: <70% control) when murine immortalized microglial cells were dosed at 10 μM (Y: yes))
161 (≈ 93.5 µg/mL) | – | COc1cc(Nc2ncc(F)c(Nc3ccc4c(n3)N(COP(=O)(O)O)C(=O)C(C)(C)O4)n2)cc(OC)c1OC [Fostamatinib] | Y (The compound was found to be cytotoxic (cell count threshold: <70% control) when murine immortalized microglial cells were dosed at 10 μM (Y: yes)) | Y (Published data supports that the compound is active in a cellular system when dosed at 10 μM (Y/N)) | – | Stimulation of human microglial phagocytosis at 10 μM (>150% control) [4]: Y (The compound was found to stimulate phagocytosis (response threshold: >150% control) when human immortalized microglial cells were dosed at 10 μM (Y: yes)); Inhibition of mouse microglial phagocytosis at 10 μM (<70% control) ([5]; BV2 cells, 10 μM): Y (The compound was found to inhibit phagocytosis (response threshold: <70% control) when murine immortalized microglial cells were dosed at 10 μM (Y: yes))
< 1.1 | – | CCCc1cc(-c2nc(-c3ccc(C)cc3)cs2)ccn1 [Fatostatin] | Y (The compound was found to be cytotoxic (cell count threshold: <70% control) when murine immortalized microglial cells were dosed at 10 μM (Y: yes)) | Y (Published data supports that the compound is active in a cellular system when dosed at 10 μM (Y/N)) | – | Stimulation of mouse microglial phagocytosis at 10 μM (>150% control) ([5]; BV2 cells, 10 μM): Y (The compound was found to stimulate phagocytosis (response threshold: >150% control) when murine immortalized microglial cells were dosed at 10 μM (Y: yes))
– | 163 (≈ 51.9 µg/mL) | CC(=O)N1CCC(NC(=O)NC23CC4CC(CC(C4)C2)C3)CC1 [AR9281] | – | – | – | Stimulation of mouse microglial phagocytosis at 10 μM (>150% control) ([5]; BV2, 10 μM): Y (The compound was found to stimulate phagocytosis (response threshold: >150% control) when murine immortalized microglial cells were dosed at 10 μM (Y: yes))
– | 87.3 (≈ 65.3 µg/mL) | COc1ccc(CC[C@@H](OC(=O)[C@@H]2CCCCN2C(=O)[C@H](c2cc(OC)c(OC)c(OC)c2)C2CCCCC2)c2cccc(OCC(=O)O)c2)cc1OC [SAFit1] | – | – | – | Stimulation of mouse microglial phagocytosis at 10 μM (>150% control) ([5]; 10 μM, BV2): Y (The compound was found to stimulate phagocytosis (response threshold: >150% control) when murine immortalized microglial cells were dosed at 10 μM (Y: yes))
